From PubChem BioAssay (NCI)
Where “and” joins values, the source holds several entries; their conditions need not be identical. Equal entries are not always repeated.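 GI50 marks 50% less growth. At the TGI there is no net growth.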

Columns and labels:
Experiment in all cases: NCI-60 cell line screen, 384-well format
KM12 colon = tested on: KM12 colon
NCI-H522 lung = tested on: NCI-H522 lung
SNB-75 CNS = tested on: SNB-75 CNS
SNB-19 CNS = tested on: SNB-19 CNS
TK-10 renal = tested on: TK-10 renal
HS 578T breast = tested on: HS 578T breast
DU-145 prostate = tested on: DU-145 prostate
K-562 leukemia = tested on: K-562 leukemia
HCT-15 colon = tested on: HCT-15 colon
SF-295 CNS = tested on: SF-295 CNS
MALME-3M melanoma = tested on: MALME-3M melanoma
MDA-MB-435 melanoma = tested on: MDA-MB-435 melanoma
SK-MEL-2 melanoma = tested on: SK-MEL-2 melanoma
OVCAR-4 ovarian = tested on: OVCAR-4 ovarian
HL-60(TB) leukemia = tested on: HL-60(TB) leukemia
HOP-92 NSCLC = tested on: HOP-92 NSCLC
UACC-257 melanoma = tested on: UACC-257 melanoma
HOP-62 NSCLC = tested on: HOP-62 NSCLC
OVCAR-3 ovarian = tested on: OVCAR-3 ovarian
SW-620 colon = tested on: SW-620 colon
NCI-H322M lung = tested on: NCI-H322M lung
EKVX NSCLC = tested on: EKVX NSCLC
A549 NSCLC = tested on: A549 NSCLC
MCF7 breast = tested on: MCF7 breast
SK-MEL-5 melanoma = tested on: SK-MEL-5 melanoma
SF-268 CNS = tested on: SF-268 CNS
A498 renal = tested on: A498 renal
T-47D breast = tested on: T-47D breast
PC-3 prostate = tested on: PC-3 prostate
MDA-MB-231 breast = tested on: MDA-MB-231 breast
ACHN renal = tested on: ACHN renal
BT-549 breast = tested on: BT-549 breast
NCI-H23 lung = tested on: NCI-H23 lung
786-0 renal = tested on: 786-0 renal
U251 glioblastoma = tested on: U251 glioblastoma
OVCAR-8 ovarian = tested on: OVCAR-8 ovarian
SK-OV-3 ovarian = tested on: SK-OV-3 ovarian
UACC-62 melanoma = tested on: UACC-62 melanoma
CAKI-1 renal = tested on: CAKI-1 renal
OVCAR-5 ovarian = tested on: OVCAR-5 ovarian
COLO 205 colon = tested on: COLO 205 colon
HT29 colon = tested on: HT29 colon
MDA-MB-468 breast = tested on: MDA-MB-468 breast
SN12C renal = tested on: SN12C renal
RXF 393 renal = tested on: RXF 393 renal
SK-MEL-28 melanoma = tested on: SK-MEL-28 melanoma
M14 melanoma = tested on: M14 melanoma
HCT-116 colon = tested on: HCT-116 colon
IGROV1 ovarian = tested on: IGROV1 ovarian
SF-539 CNS = tested on: SF-539 CNS
NCI-H226 lung = tested on: NCI-H226 lung
UO-31 renal = tested on: UO-31 renal
NCI-H460 NSCLC = tested on: NCI-H460 NSCLC

## COc1ccc(C2=N[C@@H](c3ccc(Cl)cc3)[C@@H](c3ccc(Cl)cc3)N2C(=O)N2CCNC(=O)C2)c(OC(C)C)c1
KM12 colon
  TGI: 27.8 µM and 12.7 µM and 12.3 µM
NCI-H522 lung
  GI50: 14.1 µM and 15 µM and 14.8 µM
  TGI: 27.1 µM and 28.3 µM and 28 µM
SNB-75 CNS
  GI50: 13.3 µM and 11.9 µM and 11.6 µM
  TGI: 26.1 µM and 24.2 µM and 23.9 µM
SNB-19 CNS
  GI50: 14.3 µM and 14.6 µM
  TGI: 27.4 µM and 27.9 µM
TK-10 renal
  GI50: 15.1 µM and 13.5 µM and 11.3 µM
  TGI: 28.5 µM and 26.4 µM and 23.5 µM
HS 578T breast
  GI50: 13.4 µM and 12.8 µM and 12.2 µM
  TGI: 26.2 µM and 25.5 µM and 24.7 µM
DU-145 prostate
  GI50: 15.2 µM and 15.7 µM
  TGI: 28.6 µM and 29.3 µM and 28.7 µM
K-562 leukemia
  GI50: 11.4 µM and 4.93 µM and 2.55 µM
  TGI: 23.9 µM and 20.3 µM and 17 µM
HCT-15 colon
  GI50: 16 µM and 16.1 µM and 14 µM
  TGI: 29.7 µM and 30.1 µM and 27.1 µM
SF-295 CNS
  GI50: 15.3 µM and 14.5 µM and 12.9 µM
  TGI: 28.7 µM and 27.7 µM and 25.7 µM
MALME-3M melanoma
  GI50: 8.12 µM and 2.75 µM and 5.41 µM
  TGI: 20.3 µM and 19.3 µM and 19.7 µM
MDA-MB-435 melanoma
  GI50: 13.8 µM and 16.4 µM and 15.8 µM
  TGI: 26.8 µM and 30.1 µM and 29.4 µM
SK-MEL-2 melanoma
  GI50: 18.7 µM and 18.1 µM and 14.5 µM
  TGI: 32.7 µM and 32.1 µM and 27.7 µM
OVCAR-4 ovarian
  GI50: 14 µM and 14.2 µM and 13.8 µM
  TGI: 27 µM and 27.4 µM and 26.8 µM
HL-60(TB) leukemia
  GI50: 2.99 µM and 3.06 µM and 3.55 µM
  TGI: 12.9 µM and 15.7 µM and 15.8 µM
HOP-92 NSCLC
  GI50: 15.2 µM and 13.4 µM and 11.8 µM
  TGI: 28.5 µM and 26.3 µM and 24.1 µM
UACC-257 melanoma
  GI50: 15.5 µM and 5.8 µM and 8.65 µM
  TGI: 28.9 µM and 18 µM and 20.8 µM
HOP-62 NSCLC
  GI50: 15.6 µM and 2.36 µM and 5.46 µM
  TGI: 29.1 µM and 19.6 µM and 20.5 µM
OVCAR-3 ovarian
  GI50: 12.8 µM and 12 µM and 12.1 µM
  TGI: 25.5 µM and 24.6 µM
SW-620 colon
  GI50: 13.1 µM and 11 µM and 3.58 µM
  TGI: 26 µM and 23.3 µM and 19.4 µM
NCI-H322M lung
  GI50: 19.3 µM and 17.7 µM and 13.7 µM
  TGI: 33.6 µM and 31.6 µM and 26.7 µM
EKVX NSCLC
  GI50: 15 µM and 15.3 µM and 14.6 µM
  TGI: 28.3 µM and 28.7 µM and 27.8 µM
A549 NSCLC
  GI50: 14.6 µM and 2.28 µM and 2.23 µM
  TGI: 27.8 µM and 14.7 µM and 13.8 µM
MCF7 breast
  GI50: 3.43 µM and 1.73 µM and 0.718 µM
  TGI: 16.8 µM and 8.38 µM and 8.52 µM
SK-MEL-5 melanoma
  GI50: 14.3 µM and 8.52 µM and 7.04 µM
  TGI: 27.5 µM and 20.6 µM and 20 µM
SF-268 CNS
  GI50: 16.7 µM and 13.4 µM and 10.7 µM
  TGI: 30.4 µM and 26.4 µM and 22.6 µM
A498 renal
  TGI: 23.1 µM and 13.1 µM and 13.5 µM
T-47D breast
  GI50: 17 µM and 14.7 µM and 13.8 µM
  TGI: 30.7 µM and 28 µM and 26.7 µM
PC-3 prostate
  GI50: 12.5 µM and 13 µM and 12.6 µM
  TGI: 25.1 µM and 25.8 µM and 25.2 µM
MDA-MB-231 breast
  GI50: 17 µM and 14.1 µM and 12.9 µM
  TGI: 30.8 µM and 27.1 µM and 25.6 µM
ACHN renal
  TGI: 24.2 µM and 11.4 µM and 11.2 µM
BT-549 breast
  GI50: 16.6 µM and 16.9 µM
  TGI: 30.3 µM and 30.2 µM and 30.6 µM
NCI-H23 lung
  GI50: 14.5 µM and 15.1 µM
  TGI: 27.6 µM and 28.5 µM
786-0 renal
  GI50: 14.7 µM and 14 µM and 11.2 µM
  TGI: 27.9 µM and 27.1 µM and 23.3 µM
U251 glioblastoma
  GI50: 14.7 µM and 13.7 µM and 10.9 µM
  TGI: 28 µM and 26.7 µM and 22.9 µM
OVCAR-8 ovarian
  GI50: 15.6 µM and 11.9 µM and 10.5 µM
  TGI: 29.1 µM and 24.4 µM and 22.3 µM
SK-OV-3 ovarian
  GI50: 19.7 µM and 16 µM and 12.9 µM
  TGI: 34 µM and 29.6 µM and 25.7 µM
UACC-62 melanoma
  TGI: 21.8 µM and 8.99 µM and 11.3 µM
CAKI-1 renal
  TGI: 21.1 µM and 11.9 µM and 12.4 µM
OVCAR-5 ovarian
  GI50: 16.9 µM and 17.6 µM and 16.7 µM
  TGI: 30.6 µM and 31.8 µM and 30.5 µM
COLO 205 colon
  GI50: 15.9 µM and 16.8 µM and 14.9 µM
  TGI: 29.5 µM and 30.7 µM and 28.3 µM
HT29 colon
  GI50: 11.8 µM and 13.4 µM and 10.5 µM
  TGI: 24.2 µM and 26.3 µM and 22.3 µM
MDA-MB-468 breast
  GI50: 12.4 µM and 11 µM and 11.5 µM
  TGI: 24.9 µM and 23 µM and 23.7 µM
SN12C renal
  GI50: 15.5 µM and 17.2 µM and 16.1 µM
  TGI: 28.9 µM and 31 µM and 29.6 µM
RXF 393 renal
  TGI: 24.8 µM and 16.3 µM and 14.9 µM
SK-MEL-28 melanoma
  GI50: 15.6 µM and 18.7 µM and 18 µM
  TGI: 29 µM and 32.9 µM and 32 µM
M14 melanoma
  GI50: 13.1 µM and 10 µM and 11.1 µM
  TGI: 25.8 µM and 21.6 µM and 23.1 µM
HCT-116 colon
  TGI: 24 µM and 14.5 µM and 12.8 µM
IGROV1 ovarian
  GI50: 13.5 µM and 10.9 µM and 7.76 µM
  TGI: 26.5 µM and 23 µM and 21 µM
SF-539 CNS
  GI50: 16.1 µM and 13.7 µM and 10.6 µM
  TGI: 29.6 µM and 26.8 µM and 22.4 µM
NCI-H226 lung
  TGI: 23.7 µM and 2.47 µM and 3.4 µM
UO-31 renal
  GI50: 11.2 µM and 4.63 µM and 5.1 µM
  TGI: 23.3 µM and 15.8 µM and 16 µM
NCI-H460 NSCLC
  GI50: 15.3 µM and 10.4 µM and 8.98 µM
  TGI: 28.9 µM and 22.5 µM and 21.3 µM
